Measurements as given in patent publication US11339120B2, “Phenyl derivatives as cannabinoid receptor 2 agonists” (priority 2015, dated 2022).
Read-outs that look alike come from different tables or passages of the source.

What was measured:
[1] = target: T1, human CB1 receptors (Homo sapiens, UniProt P21554); assay: functional cAMP assay, CHO cells expressing human CB1; assay type: cell-based
T1 construct: expressed in transfected cells; host or cells: CHO cells
Method: (§1) CHO cells expressing human CB1 or CB2 receptors are seeded 17-24 hours prior to the experiment 50.000 cells per well in a black 96 well plate with flat clear bottom (Corning Costar #3904) in DMEM (Invitrogen No. 31331), 1×HT supplement, with 10% fetal calf serum and incubated at 5% CO2 and 37° C. in a humidified incubator. The growth medium was exchanged with Krebs Ringer Bicarbonate buffer with 1 mM IBMX and incubated at 30° C. for 30 min. Compounds were added to a final assay volume of 100 μl and incubated for 30 min at 30° C. Using the cAMP-Nano-TRF detection kit the assay (Roche Diagnostics) was stopped by the addition of 50 μl lysis reagent (Tris, NaCl, 1.5% Triton X100, 2.5% NP40, 10% NaN3) and 50 μl detection solutions (20 μM mAb Alexa700-cAMP 1:1, and 48 μM Ruthenium-2-AHA-cAMP) and shaken for 2 h at room temperature. The time-resolved energy transfer is measured by a TRF reader (Evotec Technologies GmbH), equipped with a ND:YAG laser as excitation source. The plate is measured twice with the excitation at 355 nm and at the emission with a delay of 100 ns and a gate of 100 ns, total exposure time 10 s at 730 (bandwidth 30 nm) or 645 nm (bandwidth 75 nm), respectively. The FRET signal is calculated as follows: FRET=T730-Alexa730-P(T645-B645) with P=Ru730-B730/Ru645-B645, where T730 is the test well measured at 730 nM, T645 is the test well measured at 645 nm, B730 and B645 are the buffer controls at 730 nm and 645 nm, respectively. cAMP content is determined from the function of a standard curve spanning from 10 μM to 0.13 nM cAMP.
(§2) EC50 values were determined using Activity Base analysis (ID Business Solution, Limited). The EC50 values for a wide range of cannabinoid agonists generated from this assay were in agreement with the values published in the scientific literature.

[2] = target: T2, human CB2 receptors (Homo sapiens, UniProt P34972); assay: functional cAMP assay, CHO cells expressing human CB2; assay type: cell-based
T2 construct: expressed in transfected cells; host or cells: CHO cells
T2 sequence (P34972 whole entry): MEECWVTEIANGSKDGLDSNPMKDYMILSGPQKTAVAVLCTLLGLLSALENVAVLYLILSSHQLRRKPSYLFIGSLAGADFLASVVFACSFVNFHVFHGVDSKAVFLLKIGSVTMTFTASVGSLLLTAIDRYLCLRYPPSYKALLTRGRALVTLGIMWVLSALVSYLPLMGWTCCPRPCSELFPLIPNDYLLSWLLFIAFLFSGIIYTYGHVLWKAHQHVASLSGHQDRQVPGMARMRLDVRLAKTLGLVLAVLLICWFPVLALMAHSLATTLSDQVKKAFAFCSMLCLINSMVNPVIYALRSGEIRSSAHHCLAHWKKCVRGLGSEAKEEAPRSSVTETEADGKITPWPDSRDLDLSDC
Method: as §1, §2

[3] = functional cAMP assay, CHO cells expressing human CB2, read-out: Human CB2 EC50

T1 sequence (P21554 whole entry): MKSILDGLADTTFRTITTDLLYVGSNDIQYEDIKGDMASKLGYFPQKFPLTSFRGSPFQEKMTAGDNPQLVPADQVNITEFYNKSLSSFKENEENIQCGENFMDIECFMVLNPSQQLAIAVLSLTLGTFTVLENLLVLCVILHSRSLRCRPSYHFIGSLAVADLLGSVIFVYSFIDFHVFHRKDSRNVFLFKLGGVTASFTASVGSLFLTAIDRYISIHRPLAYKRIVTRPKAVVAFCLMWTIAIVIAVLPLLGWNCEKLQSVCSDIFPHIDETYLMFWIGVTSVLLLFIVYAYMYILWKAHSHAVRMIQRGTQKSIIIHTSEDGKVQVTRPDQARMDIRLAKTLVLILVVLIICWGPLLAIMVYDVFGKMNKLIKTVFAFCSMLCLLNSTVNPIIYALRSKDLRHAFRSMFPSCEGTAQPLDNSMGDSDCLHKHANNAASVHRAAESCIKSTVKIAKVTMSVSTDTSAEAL

SMILES | EC50 [1] [µM] | EC50 [2] [nM] | EC50 [2, 3] [nM]
CC(C)Oc1cc(C(=O)N[C@](C)(CC(N)=O)C2CC2)ccc1C1CC1 [Example 44, N-[(2R)-4-Amino-2-cyclopropyl-4-oxobutan-2-yl]-4-cyclopropyl-3-[(propan-2-yl)oxy]benzamide] | 1.09 | 2.91 | –
CNC(=O)[C@@H](NC(=O)c1ccc(C2CC2)c(OCCF)c1)C(C)(C)C [Example 39, 4-Cyclopropyl-N-[(2S)-3,3-dimethyl-1-(methylamino)-1-oxobutan-2-yl]-3-(2-fluoroethoxy)benzamide] | 1.56 | 11.5 | –
CC(C)(C)c1noc(-c2ccc(C3CC3)c(OCC3CC3)c2)n1 [Example 14, 3-tert-Butyl-5-[4-cyclopropyl-3-(cyclopropylmethoxy)phenyl]-1,2,4-oxadiazole] | > 10 | 23.3 | –
CC(C)Oc1cc(C(=O)N2CC(F)(F)C[C@H]2C(N)=O)ccc1C1CC1 [Example 48, 1-{4-Cyclopropyl-3-[(propan-2-yl)oxy]benzoyl}-4,4-difluoro-L-prolinamide] | > 10 | – | 377
CCC(CC)(NC(=O)c1ccc(C2CC2)c(OCC2CC2)c1)C(=O)O [Example 8, 2-[4-Cyclopropyl-3-(cyclopropylmethoxy)benzamido]-2-ethylbutanoic acid] | > 10 | – | 2170
Cc1nc([C@](C)(CC2CC2)NC(=O)c2ccc(C3CC3)c(-c3ccc(F)nc3)c2)no1 [Example 60, 4-Cyclopropyl-N-[(2S)-1-cyclopropyl-2-(5-methyl-1,2,4-oxadiazol-3-yl)propan-2-yl]-3-(6-fluoropyridin-3-yl)benzamide] | > 10 | 98.4 | –
NC(=O)CC1(NC(=O)c2ccc(C3CC3)c(OCC3CC3)c2)CS(=O)(=O)C1 [Example 16, N-[3-(2-Amino-2-oxoethyl)-1,1-dioxothietan-3-yl]-4-cyclopropyl-3-(cyclopropylmethoxy)benzamide] | > 10 | 2.65 | –
Cc1nc([C@@](C)(CC2CC2)NC(=O)c2ccc(C3CC3)c(N3CCC(F)(F)C3)c2)no1 [Example 63, 4-Cyclopropyl-N-[(2R)-1-cyclopropyl-2-(5-methyl-1,2,4-oxadiazol-3-yl)propan-2-yl]-3-(3,3-difluoropyrrolidin-1-yl)benzamide] | 0.872 | 3.83 | –
Cc1nc([C@@](C)(CC2CC2)NC(=O)c2ccc(C3CC3)c(-c3ccc(F)nc3)c2)no1 [Example 50, 4-Cyclopropyl-N-[(2R)-1-cyclopropyl-2-(5-methyl-1,2,4-oxadiazol-3-yl)propan-2-yl]-3-(6-fluoropyridin-3-yl)benzamide] | > 10 | 53.7 | –
CC(C)(NC(=O)c1ccc(C2CC2)c(OCC2CC2)c1)c1nccs1 [Example 6, 4-Cyclopropyl-3-(cyclopropylmethoxy)-N-[2-(1,3-thiazol-2-yl)propan-2-yl]benzamide] | 0.539 | 26 | –
NC(=O)[C@@H]1CC(F)(F)CN1C(=O)c1ccc(C2CC2)c(OCCF)c1 [Example 40, 1-[4-Cyclopropyl-3-(2-fluoroethoxy)benzoyl]-4,4-difluoro-L-prolinamide] | > 10 | – | 216
Cc1nc([C@](C)(CC2CC2)NC(=O)c2ccc(C3CC3)c(OCCF)c2)no1 [Example 34, (+)-4-Cyclopropyl-N-[1-cyclopropyl-2-(5-methyl-1,2,4-oxadiazol-3-yl)propan-2-yl]-3-(2-fluoroethoxy)benzamide] | > 10 | 57 | –
CNC(=O)[C@H](CC(C)C)NC(=O)c1ccc(N2CC(F)(F)C2)c(OCC2CC2)c1 [Example 12, N^2-[3-(cyclopropylmethoxy)-4-(3,3-difluoroazetidin-1-yl)benzoyl]-N-methyl-L-leucinamide] | > 10 | 66.4 | –
CC(C)(C)c1nc(-c2ccc(C3CC3)c(OCC(F)F)c2)no1 [Example 24, 5-tert-Butyl-3-[4-cyclopropyl-3-(2,2-difluoroethoxy)phenyl]-1,2,4-oxadiazole] | > 10 | 15.5 | –
Cc1nc(C(C)(C)NC(=O)c2ccc(N3CC(F)(F)C3)c(OCC3CC3)c2)no1 [Example 10, 3-(Cyclopropylmethoxy)-4-(3,3-difluoroazetidin-1-yl)-N-[2-(5-methyl-1,2,4-oxadiazol-3-yl)propan-2-yl]benzamide] | > 10 | 32.9 | –
C[C@](CC(N)=O)(NC(=O)c1ccc(C2CC2)c(OCC(F)(F)F)c1)C1CC1 [Example 36, (+)-N-[4-amino-2-cyclopropyl-4-oxobutan-2-yl]-4-cyclopropyl-3-(2,2,2-trifluoroethoxy)benzamide] | > 10 | 33.9 | –
C[C@@](CC(N)=O)(NC(=O)c1ccc(C2CC2)c(N2CCC(F)(F)C2)c1)C1CC1 [Example 62, N-[(2S)-4-Amino-2-cyclopropyl-4-oxobutan-2-yl]-4-cyclopropyl-3-(3,3-difluoropyrrolidin-1-yl)benzamide] | > 10 | 25.9 | –
CC(C)(CO)NC(=O)c1ccc(C2CC2)c(OCC2CC2)c1 [Example 5, 4-Cyclopropyl-3-(cyclopropylmethoxy)-N-(1-hydroxy-2-methylpropan-2-yl)benzamide] | > 10 | – | 130
C[C@](CC(N)=O)(NC(=O)c1ccc(C2CC2)c(-c2ccc(F)nc2)c1)C1CC1 [Example 52, N-[(2R)-4-Amino-2-cyclopropyl-4-oxobutan-2-yl]-4-cyclopropyl-3-(6-fluoropyridin-3-yl)benzamide] | > 10 | 9.76 | –
NC(=O)[C@@H]1CC(F)(F)CN1C(=O)c1ccc(C2CC2)c(OCC(F)(F)F)c1 [Example 42, 1-[4-Cyclopropyl-3-(2,2,2-trifluoroethoxy)benzoyl]-4,4-difluoro-L-prolinamide] | > 10 | – | 134
CC(C)(C)c1noc(-c2ccc(C3CC3)c(N3CCC(F)(F)C3)c2)n1 [Example 47, 3-tert-Butyl-5-[4-cyclopropyl-3-(3,3-difluoropyrrolidin-1-yl)phenyl]-1,2,4-oxadiazole] | > 10 | 5.33 | –
Cc1nc([C@@](C)(CC2CC2)NC(=O)c2ccc(C3CC3)c(OCC(F)(F)F)c2)no1 [Example 25, (−)-4-Cyclopropyl-N-[1-cyclopropyl-2-(5-methyl-1,2,4-oxadiazol-3-yl)propan-2-yl]-3-(2,2,2-trifluoroethoxy)benzamide] | > 10 | 40.3 | –
NC(=O)CC1(NC(=O)c2ccc(C3CC3)c(OCC(F)(F)F)c2)CS(=O)(=O)C1 [Example 27, N-[3-(2-Amino-2-oxoethyl)-1,1-dioxothietan-3-yl]-4-cyclopropyl-3-(2,2,2-trifluoroethoxy)benzamide] | > 10 | 98 | –
Cc1nc([C@@](C)(CC2CC2)NC(=O)c2ccc(C3CC3)c(OCC(F)F)c2)no1 [Example 31, (−)-4-Cyclopropyl-N-[1-cyclopropyl-2-(5-methyl-1,2,4-oxadiazol-3-yl)propan-2-yl]-3-(2,2-difluoroethoxy)benzamide] | > 10 | 16.6 | –
CNC(=O)[C@@H](NC(=O)c1ccc(C2CC2)c(N2CCC(F)(F)C2)c1)C(C)(C)C [Example 66, 4-Cyclopropyl-3-(3,3-difluoropyrrolidin-1-yl)-N-[(2S)-3,3-dimethyl-1-(methylamino)-1-oxobutan-2-yl]benzamide] | 0.0421 | 0.48 | –
Cc1nc(C(C)(C)NC(=O)c2ccc(C3CC3)c(OCC3CC3)c2)no1 [Example 3, 4-Cyclopropyl-3-(cyclopropylmethoxy)-N-[2-(5-methyl-1,2,4-oxadiazol-3-yl)propan-2-yl]benzamide] | > 10 | – | 122
NC(=O)CC1(NC(=O)c2ccc(C3CC3)c(OCC3CC3)c2)COC1 [Example 15, N-[3-(2-Amino-2-oxoethyl)oxetan-3-yl]-4-cyclopropyl-3-(cyclopropylmethoxy)benzamide] | > 10 | 34.1 | –
CC(C)Oc1cc(C(=O)N[C@@](C)(CC(N)=O)C2CC2)ccc1C1CC1 [Example 43, N-[(2S)-4-Amino-2-cyclopropyl-4-oxobutan-2-yl]-4-cyclopropyl-3-[(propan-2-yl)oxy]benzamide] | > 10 | 30.8 | –
NC(=O)[C@@H]1CC(F)(F)CN1C(=O)c1ccc(C2CC2)c(-c2ccc(F)nc2)c1 [Example 57, 1-[4-Cyclopropyl-3-(6-fluoropyridin-3-yl)benzoyl]-4,4-difluoro-L-prolinamide] | > 10 | – | 274
CNC(=O)[C@@H](NC(=O)c1ccc(C2CC2)c(-c2ccc(F)nc2)c1)C(C)(C)C [Example 58, 4-Cyclopropyl-N-[(2S)-3,3-dimethyl-1-(methylamino)-1-oxobutan-2-yl]-3-(6-fluoropyridin-3-yl)benzamide] | 0.388 | 11.8 | –
